Assay results taken from PubChem BioAssay (NCI).
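Values below derive from 48-hour exposures of cells grown in 96-well plates, with endpoints linearly interpolated between the two concentrations bracketing the appropriate inhibition level. The concentration for full growth arrest is given as TGI.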

Key:
Test in all cases: NCI tumour cell line growth inhibition, 48 h
786-0 renal = tested on: 786-0 renal
A498 renal = tested on: A498 renal
A549 NSCLC = tested on: A549 NSCLC
ACHN renal = tested on: ACHN renal
CAKI-1 renal = tested on: CAKI-1 renal
CCRF-CEM leukemia = tested on: CCRF-CEM leukemia
COLO 205 colon = tested on: COLO 205 colon
DU-145 prostate = tested on: DU-145 prostate
EKVX NSCLC = tested on: EKVX NSCLC
HCC-2998 colon = tested on: HCC-2998 colon
HCT-116 colon = tested on: HCT-116 colon
HCT-15 colon = tested on: HCT-15 colon
HL-60(TB) leukemia = tested on: HL-60(TB) leukemia
HOP-62 NSCLC = tested on: HOP-62 NSCLC
HOP-92 NSCLC = tested on: HOP-92 NSCLC
HS 578T breast = tested on: HS 578T breast
HT29 colon = tested on: HT29 colon
IGROV1 ovarian = tested on: IGROV1 ovarian
K-562 leukemia = tested on: K-562 leukemia
LOX IMVI melanoma = tested on: LOX IMVI melanoma
M14 melanoma = tested on: M14 melanoma
MALME-3M melanoma = tested on: MALME-3M melanoma
MCF7 breast = tested on: MCF7 breast
MDA-MB-231 breast = tested on: MDA-MB-231 breast
MDA-MB-435 = tested on: MDA-MB-435
MDA-N = tested on: MDA-N
MOLT-4 leukemia = tested on: MOLT-4 leukemia
NCI-H23 lung = tested on: NCI-H23 lung
NCI-H460 lung = tested on: NCI-H460 lung
NCI-H522 lung = tested on: NCI-H522 lung
NCI/ADR-RES ovarian = tested on: NCI/ADR-RES ovarian
OVCAR-3 ovarian = tested on: OVCAR-3 ovarian
OVCAR-4 ovarian = tested on: OVCAR-4 ovarian
OVCAR-5 ovarian = tested on: OVCAR-5 ovarian
OVCAR-8 ovarian = tested on: OVCAR-8 ovarian
PC-3 prostate = tested on: PC-3 prostate
RPMI-8226 leukemia = tested on: RPMI-8226 leukemia
SF-268 CNS = tested on: SF-268 CNS
SF-295 CNS = tested on: SF-295 CNS
SF-539 CNS = tested on: SF-539 CNS
SK-MEL-2 melanoma = tested on: SK-MEL-2 melanoma
SK-MEL-28 melanoma = tested on: SK-MEL-28 melanoma
SK-MEL-5 melanoma = tested on: SK-MEL-5 melanoma
SK-OV-3 ovarian = tested on: SK-OV-3 ovarian
SN12C renal = tested on: SN12C renal
SNB-19 CNS = tested on: SNB-19 CNS
SNB-75 CNS = tested on: SNB-75 CNS
SR leukemia = tested on: SR leukemia
SW-620 colon = tested on: SW-620 colon
T-47D breast = tested on: T-47D breast
TK-10 renal = tested on: TK-10 renal
U251 CNS = tested on: U251 CNS
UACC-257 melanoma = tested on: UACC-257 melanoma
UACC-62 melanoma = tested on: UACC-62 melanoma
UO-31 renal = tested on: UO-31 renal
KM12 colon = tested on: KM12 colon
NCI-H226 lung = tested on: NCI-H226 lung
RXF 393 renal = tested on: RXF 393 renal

## CO[C@]12CC(=O)C3(C(C[C@H]4CC5CCC6=CC(=O)CC[C@]6(OC(C)=O)C5C[C@@]43C)C1)C1C[C@H]3[C@@H]4CCC5=CC(=O)CC[C@]5(OC(C)=O)[C@H]4CC[C@]3(C)C12 (stereo partly drawn)
786-0 renal
  TGI: > 100 µM
A498 renal
  TGI: > 100 µM
A549 NSCLC
  TGI: > 100 µM
ACHN renal
  TGI: > 100 µM
CAKI-1 renal
  TGI: > 100 µM
CCRF-CEM leukemia
  TGI: > 100 µM
COLO 205 colon
  TGI: 56.7 µM
DU-145 prostate
  TGI: > 100 µM
EKVX NSCLC
  TGI: > 100 µM
HCC-2998 colon
  TGI: > 100 µM
HCT-116 colon
  TGI: > 100 µM
HCT-15 colon
  TGI: > 100 µM
HL-60(TB) leukemia
  TGI: > 100 µM
HOP-62 NSCLC
  TGI: > 100 µM
HOP-92 NSCLC
  TGI: > 100 µM
HS 578T breast
  TGI: > 100 µM
HT29 colon
  TGI: > 100 µM
IGROV1 ovarian
  TGI: > 100 µM
K-562 leukemia
  TGI: > 100 µM
LOX IMVI melanoma
  TGI: > 100 µM
M14 melanoma
  TGI: > 100 µM
MALME-3M melanoma
  TGI: > 100 µM
MCF7 breast
  TGI: > 100 µM
MDA-MB-231 breast
  TGI: 74.7 µM
MDA-MB-435
  TGI: > 100 µM
MDA-N
  TGI: > 100 µM
MOLT-4 leukemia
  TGI: > 100 µM
NCI-H23 lung
  TGI: > 100 µM
NCI-H460 lung
  TGI: > 100 µM
NCI-H522 lung
  TGI: > 100 µM
NCI/ADR-RES ovarian
  TGI: > 100 µM
OVCAR-3 ovarian
  TGI: > 100 µM
OVCAR-4 ovarian
  TGI: > 100 µM
OVCAR-5 ovarian
  TGI: > 100 µM
OVCAR-8 ovarian
  TGI: > 100 µM
PC-3 prostate
  TGI: > 100 µM
RPMI-8226 leukemia
  TGI: > 100 µM
SF-268 CNS
  TGI: > 100 µM
SF-295 CNS
  TGI: > 100 µM
SF-539 CNS
  TGI: > 100 µM
SK-MEL-2 melanoma
  TGI: > 100 µM
SK-MEL-28 melanoma
  TGI: > 100 µM
SK-MEL-5 melanoma
  TGI: > 100 µM
SK-OV-3 ovarian
  TGI: > 100 µM
SN12C renal
  TGI: > 100 µM
SNB-19 CNS
  TGI: > 100 µM
SNB-75 CNS
  TGI: > 100 µM
SR leukemia
  TGI: > 100 µM
SW-620 colon
  TGI: > 100 µM
T-47D breast
  TGI: > 100 µM
TK-10 renal
  TGI: > 100 µM
U251 CNS
  TGI: > 100 µM
UACC-257 melanoma
  TGI: > 100 µM
UACC-62 melanoma
  TGI: > 100 µM
UO-31 renal
  TGI: > 100 µM

## N=C1N(c2ccccc2)C(=S)C(=Nc2ccccc2)N1c1ccccc1
786-0 renal
  TGI: 22.2 µM
A498 renal
  TGI: 31.8 µM
A549 NSCLC
  TGI: 42.1 µM
ACHN renal
  TGI: 20.6 µM
CAKI-1 renal
  TGI: 27.7 µM
CCRF-CEM leukemia
  TGI: > 20.7 µM
COLO 205 colon
  TGI: 12.1 µM
DU-145 prostate
  TGI: 31.2 µM
EKVX NSCLC
  TGI: 53.1 µM
HCC-2998 colon
  TGI: 30.7 µM
HCT-116 colon
  TGI: 7.26 µM
HCT-15 colon
  TGI: 21.9 µM
HL-60(TB) leukemia
  TGI: 10.9 µM
HOP-62 NSCLC
  TGI: 34.1 µM
HOP-92 NSCLC
  TGI: 22.9 µM
HS 578T breast
  TGI: 47.4 µM
HT29 colon
  TGI: 18.3 µM
IGROV1 ovarian
  TGI: 25.9 µM
K-562 leukemia
  TGI: 9.59 µM
KM12 colon
  TGI: 27.2 µM
LOX IMVI melanoma
  TGI: 5.14 µM
M14 melanoma
  TGI: 23.6 µM
MALME-3M melanoma
  TGI: 26.6 µM
MCF7 breast
  TGI: 3.46 µM
MDA-MB-231 breast
  TGI: 20.9 µM
MDA-MB-435
  TGI: 3.94 µM
MDA-N
  TGI: 6.1 µM
MOLT-4 leukemia
  TGI: 7.55 µM
NCI-H226 lung
  TGI: 36.3 µM
NCI-H23 lung
  TGI: 18 µM
NCI-H460 lung
  TGI: 31 µM
NCI-H522 lung
  TGI: 7.72 µM
NCI/ADR-RES ovarian
  TGI: 38.6 µM
OVCAR-3 ovarian
  TGI: 9.55 µM
OVCAR-4 ovarian
  TGI: 26.8 µM
OVCAR-5 ovarian
  TGI: 32.1 µM
OVCAR-8 ovarian
  TGI: 16.7 µM
PC-3 prostate
  TGI: 24.8 µM
RPMI-8226 leukemia
  TGI: 13.9 µM
RXF 393 renal
  TGI: 25 µM
SF-268 CNS
  TGI: 29.7 µM
SF-295 CNS
  TGI: 30.5 µM
SF-539 CNS
  TGI: 24.9 µM
SK-MEL-2 melanoma
  TGI: 12.4 µM
SK-MEL-28 melanoma
  TGI: 31.7 µM
SK-MEL-5 melanoma
  TGI: 6.21 µM
SK-OV-3 ovarian
  TGI: 33 µM
SN12C renal
  TGI: 27.8 µM
SNB-19 CNS
  TGI: 30.4 µM
SNB-75 CNS
  TGI: 29.4 µM
SR leukemia
  TGI: > 48.4 µM
SW-620 colon
  TGI: 13 µM
T-47D breast
  TGI: 9.21 µM
TK-10 renal
  TGI: 28.2 µM
U251 CNS
  TGI: 27.3 µM
UACC-257 melanoma
  TGI: 7.52 µM
UACC-62 melanoma
  TGI: 13.5 µM
UO-31 renal
  TGI: 16.7 µM
